Data reported in ChEMBL document CHEMBL3885881, “DrugMatrix”.

Organism: Rattus norvegicus
Test: DrugMatrix - Regimen: Daily Repeat
Assay type: toxicity, organism-based, Sprague-Dawley
Parameters: regimen Daily Repeat, gender Male, age 6-8 weeks
Details: in vivo, po, route oral GAVAGE, vehicle .5 % CMC; for ABSOLUTE BASOPHIL / ABSOLUTE EOSINOPHIL / ABSOLUTE LYMPHOCYTE / ABSOLUTE MONOCYTE / ABSOLUTE SEGMENTED NEUTROPHIL / BASOPHIL / EOSINOPHIL / ERYTHROCYTE COUNT / HEMATOCRIT / HEMOGLOBIN / LEUKOCYTE COUNT / LYMPHOCYTE / MEAN CORPUSCULAR HEMOGLOBIN / MEAN CORPUSCULAR HEMOGLOBIN CONCENTRATION / MEAN CORPUSCULAR VOLUME / MONOCYTE / NEUTROPHIL / NUCLEATED RED BLOOD CELLS / PLATELET COUNT: tissue Blood; for ALANINE AMINOTRANSFERASE / ALBUMIN / ALKALINE PHOSPHATASE / ASPARTATE AMINOTRANSFERASE / BLOOD UREA NITROGEN / CARBON DIOXIDE / CHLORIDE / CHOLESTEROL / CREATINE PHOSPHOKINASE / CREATININE / GLUCOSE / LACTATE DEHYDROGENASE / LIPASE / PHOSPHORUS / POTASSIUM / SODIUM / TOTAL BILIRUBIN / TOTAL PROTEIN / URIC ACID: tissue Plasma
[1] = 0 mg/kg, 72 h, dose level Control, time 3 day
[2] = 0 mg/kg, 120 h, dose level Control, time 5 day
[3] = 150 mg/kg, 72 h, dose level Low, time 3 day

C[C@@H](O)[C@H]1C(=O)N2C(C(=O)O)=C(S[C@@H]3CN[C@H](C(=O)N(C)C)C3)[C@H](C)[C@H]12 [MEROPENEM]
ABSOLUTE BASOPHIL [1]: 0 CELLS/uL
ABSOLUTE EOSINOPHIL [1]: 222.83 CELLS/uL
ABSOLUTE LYMPHOCYTE [1]: 14453 CELLS/uL
ABSOLUTE MONOCYTE [1]: 0 CELLS/uL
ABSOLUTE SEGMENTED NEUTROPHIL [1]: 1490.83 CELLS/uL
BASOPHIL [1]: 0%
EOSINOPHIL [1]: 1.33%
ERYTHROCYTE COUNT [1]: 5.76 x10E6/uL
HEMATOCRIT [1]: 36.52%
HEMOGLOBIN [1]: 13.45 G/DL
LEUKOCYTE COUNT [1]: 16.17 x10E3/uL
LYMPHOCYTE [1]: 89.33%
MEAN CORPUSCULAR HEMOGLOBIN [1]: 23.37 pg
MEAN CORPUSCULAR HEMOGLOBIN CONCENTRATION [1]: 36.85 G/DL
MEAN CORPUSCULAR VOLUME [1]: 63.47 fL
MONOCYTE [1]: 0%
NEUTROPHIL [1]: 9.33%
NUCLEATED RED BLOOD CELLS [1]: 0 /100WBC
PLATELET COUNT [1]: 1239.5 x10E3/uL
ALANINE AMINOTRANSFERASE [1]: 43.83 u/L
ALBUMIN [1]: 4.27 G/DL
ALKALINE PHOSPHATASE [1]: 398.83 u/L
ASPARTATE AMINOTRANSFERASE [1]: 81.17 u/L
BLOOD UREA NITROGEN [1]: 17.67 mg/dL
CARBON DIOXIDE [1]: 27.5 mmol/L
CHLORIDE [1]: 99.17 MEQ/L
CHOLESTEROL [1]: 74 mg/dL
CREATINE PHOSPHOKINASE [1]: 331.5 u/L
CREATININE [1]: 0.2 mg/dL
GLUCOSE [1]: 171.33 mg/dL
LACTATE DEHYDROGENASE [1]: 241.67 u/L
LIPASE [1]: 9.5 u/L
PHOSPHORUS [1]: 12.25 mg/dL
POTASSIUM [1]: 6.33 MEQ/L
SODIUM [1]: 141.28 MEQ/L
TOTAL BILIRUBIN [1]: 0.15 mg/dL
TOTAL PROTEIN [1]: 5.98 G/DL
URIC ACID [1]: 1.63 mg/dL
ABSOLUTE BASOPHIL [2]: 0 CELLS/uL
ABSOLUTE EOSINOPHIL [2]: 148.67 CELLS/uL
ABSOLUTE LYMPHOCYTE [2]: 16020.5 CELLS/uL
ABSOLUTE MONOCYTE [2]: 29.17 CELLS/uL
ABSOLUTE SEGMENTED NEUTROPHIL [2]: 1468.33 CELLS/uL
BASOPHIL [2]: 0%
EOSINOPHIL [2]: 1%
ERYTHROCYTE COUNT [2]: 5.78 x10E6/uL
HEMATOCRIT [2]: 35.77%
HEMOGLOBIN [2]: 13.4 G/DL
LEUKOCYTE COUNT [2]: 17.67 x10E3/uL
LYMPHOCYTE [2]: 90.5%
MEAN CORPUSCULAR HEMOGLOBIN [2]: 23.22 pg
MEAN CORPUSCULAR HEMOGLOBIN CONCENTRATION [2]: 37.47 G/DL
MEAN CORPUSCULAR VOLUME [2]: 61.92 fL
MONOCYTE [2]: 0.17%
NEUTROPHIL [2]: 8.33%
NUCLEATED RED BLOOD CELLS [2]: 0.17 /100WBC
PLATELET COUNT [2]: 1255.5 x10E3/uL
ALANINE AMINOTRANSFERASE [2]: 46.5 u/L
ALBUMIN [2]: 4.38 G/DL
ALKALINE PHOSPHATASE [2]: 336 u/L
ASPARTATE AMINOTRANSFERASE [2]: 76.5 u/L
BLOOD UREA NITROGEN [2]: 20 mg/dL
CARBON DIOXIDE [2]: 27.5 mmol/L
CHLORIDE [2]: 101 MEQ/L
CHOLESTEROL [2]: 71.33 mg/dL
CREATINE PHOSPHOKINASE [2]: 231.83 u/L
CREATININE [2]: 0.37 mg/dL
GLUCOSE [2]: 168.83 mg/dL
LACTATE DEHYDROGENASE [2]: 174 u/L
LIPASE [2]: 8.67 u/L
PHOSPHORUS [2]: 11.48 mg/dL
POTASSIUM [2]: 6.82 MEQ/L
SODIUM [2]: 143.8 MEQ/L
TOTAL BILIRUBIN [2]: 0.2 mg/dL
TOTAL PROTEIN [2]: 5.98 G/DL
URIC ACID [2]: 1.83 mg/dL
ABSOLUTE BASOPHIL [3]: 0 CELLS/uL
ABSOLUTE EOSINOPHIL [3]: 455.67 CELLS/uL
ABSOLUTE LYMPHOCYTE [3]: 14286.67 CELLS/uL
ABSOLUTE MONOCYTE [3]: 45.33 CELLS/uL
ABSOLUTE SEGMENTED NEUTROPHIL [3]: 1912.33 CELLS/uL
BASOPHIL [3]: 0%
EOSINOPHIL [3]: 2.67%
ERYTHROCYTE COUNT [3]: 5.53 x10E6/uL
HEMATOCRIT [3]: 35.53%
HEMOGLOBIN [3]: 13.27 G/DL
LEUKOCYTE COUNT [3]: 16.7 x10E3/uL
LYMPHOCYTE [3]: 85.67%
MEAN CORPUSCULAR HEMOGLOBIN [3]: 24.03 pg
MEAN CORPUSCULAR HEMOGLOBIN CONCENTRATION [3]: 37.37 G/DL
MEAN CORPUSCULAR VOLUME [3]: 64.3 fL
MONOCYTE [3]: 0.33%
NEUTROPHIL [3]: 11.33%
NUCLEATED RED BLOOD CELLS [3]: 0 /100WBC
PLATELET COUNT [3]: 1310.33 x10E3/uL
ALANINE AMINOTRANSFERASE [3]: 52.67 u/L
ALBUMIN [3]: 4.33 G/DL
ALKALINE PHOSPHATASE [3]: 370.33 u/L
ASPARTATE AMINOTRANSFERASE [3]: 85.67 u/L
BLOOD UREA NITROGEN [3]: 16.33 mg/dL
CARBON DIOXIDE [3]: 27 mmol/L
CHLORIDE [3]: 101.33 MEQ/L
CHOLESTEROL [3]: 78.33 mg/dL
CREATINE PHOSPHOKINASE [3]: 300.67 u/L
CREATININE [3]: 0.22 mg/dL
GLUCOSE [3]: 154.33 mg/dL
LACTATE DEHYDROGENASE [3]: 406.33 u/L
LIPASE [3]: 9 u/L
PHOSPHORUS [3]: 11.9 mg/dL
POTASSIUM [3]: 6.59 MEQ/L
SODIUM [3]: 143 MEQ/L
TOTAL BILIRUBIN [3]: 0.2 mg/dL
TOTAL PROTEIN [3]: 6.03 G/DL
URIC ACID [3]: 2 mg/dL
